Tests used:
[1] = test system: Candida albicans ATCC 90028; test: MIC microdilution assay (Example 32); assay type: cell-based; settings: C. albicans ATCC 90028 (quality control); RPMI media; 35±2° C. 24 to 48 hours; two values given
Experimental: (§1) Strain IDs starting with “ATCC” were acquired from the American Type Culture Collection (Manassas, VA), strain IDs starting with “Eurofins” were acquired from Eurofins (Herndon, VA), while strain IDs starting with “CDC” were acquired from the Centers for Disease Control and Prevention (Atlanta, GA). All strains were maintained as −80° C. frozen glycerol stocks. S. aureus and P. aeruginosa were grown overnight on Tryptic Soy Agar (TSA) plates at 35±2° C., ambient atmosphere, while S. pyogenes was grown overnight on TSA+5% defibrinated sheep blood at 35±2° C., 5% CO2. C. jejuni was grown for 48 hours on TSA+5% defibrinated sheep blood at 35±2° C., in a microaerophilic environment generated by CampyGen sachet. All fungal species (i.e. C. albicans and C. auris) were grown overnight on Sabouraud Dextrose Agar (SDA) plates at 35±2° C., ambient atmosphere.
(§2) Test article Compound 1 (batch #7G30A9.203) was stored at 4° C. The antibiotic Tobramycin and antifungal Amphotericin B were used as quality control (QC) compounds for the MIC assay. Stock solutions of 3.2 mg/mL Tobramycin (Sigma-Aldrich, cat #T1783-500MG) and 3.2 mg/mL Amphotericin B (CP Lab Chemicals, cat #TOK-A007-1G) were prepared in sterile ultrapure water.
(§3) For bacteria strains, a few colonies of each strain were collected with a sterile swab and used to make a McFarland 0.5 standard solution (approximately 1×10^8 CFU/mL) in sterile PBS. The McFarland was then diluted 1:180 in Cation Adjusted Muller-Hinton Broth (CAMHB) for S. aureus and P. aeruginosa. S. pyogenes McFarland was diluted 1:180 in CAMHB+5% defibrinated sheep blood, while C. jejuni McFarland was diluted 1:180 in CAMHB+5% laked horse blood. 90 μL of this inoculum was combined with 10 μL of the 10× test article in a 96-well plate for a final concentration of 1×.
(§4) For the yeasts C. albicans and C. auris, a McFarland 0.5 standard solution in sterile PBS was similarly prepared (approximately 1×10^6 CFU/mL) and was subsequently diluted 1:180 in RPMI 1640 media buffered with 0.165 M MOPS at pH 7.0 (herein referred to as “RPMI media”). 90 μL of the Candida inoculum was combined with 10 μL of the 10× test article in a 96-well plate for a final concentration of 1×.
(§5) Except for C. jejuni, all bacterial-strain MIC 96-well plates were incubated at 35±2° C. for 18 to 20 hours, ambient atmosphere. C. jejuni was incubated at 35±2° C. for 48 hours, under microaerophilic condition. All Candida MIC 96-well plates were incubated at 35±2° C. for 24 to 48 hours, ambient atmosphere, until growth in control wells were observed. After incubation, the 96-well plates were examined visually and on a spectrophotometer at absorbance OD650. MIC is defined as the lowest concentration of a compound in which no visible growth is observed.

Candida auris CDC 0385 [2] = test: MIC microdilution assay (Example 32); assay type: cell-based; settings: C. auris CDC 0385; RPMI media; 35±2° C. 24 to 48 hours; two values given
Experimental: as §1, §2, §3, §4, §5

[3] = test system: Pseudomonas aeruginosa ATCC 27853; test: MIC microdilution assay (Example 32); assay type: cell-based; settings: P. aeruginosa ATCC 27853 (quality control); CAMHB; 35±2° C. 18 to 20 hours; two values given
Experimental: as §1, §2, §3, §5

[4] = test system: Pseudomonas aeruginosa CDC 0248; test: MIC microdilution assay (Example 32); assay type: cell-based; settings: P. aeruginosa CDC 0248; CAMHB; 35±2° C. 18 to 20 hours; two values given
Experimental: as §1, §2, §3, §5

[5] = test system: Pseudomonas aeruginosa Eurofins 1674623; test: MIC microdilution assay (Example 32); assay type: cell-based; settings: P. aeruginosa Eurofins 1674623; CAMHB; 35±2° C. 18 to 20 hours; two values given
Experimental: as §1, §2, §3, §5

[6] = test system: Streptococcus pyogenes Eurofins 2065755; test: MIC microdilution assay (Example 32); assay type: cell-based; settings: S. pyogenes Eurofins 2065755; CAMHB+5% defibrinated sheep blood; 35±2° C. 18 to 20 hours; two values given
Experimental: as §1, §2, §3, §5

[7] = test system: Acinetobacter baumannii Eurofins 1674627; test: MBC/MFC determination (Example 32); assay type: cell-based; settings: A. baumannii Eurofins 1674627; plated after 18 to 20 hours incubation; two values given
Experimental: (§6) 10 μL of liquid from each test condition was plated on the appropriate agar media for each test strain. Except for C. jejuni, all other strains were plated for MBC/MFC after 18 to 20 hours incubation, or until growth in growth control wells were visually observed. MBC for C. jejuni was plated 48 hours after incubation of the 96-well plate. Once the liquid from the 96-well plate has been allowed to air dry in a biosafety cabinet, the agar plates were incubated under the appropriate conditions and colony formation was assessed. MBC/MFC is defined as the lowest concentration of a compound in which no colonies were recovered.

[8] = test system: Campylobacter jejuni CDC 0413; test: MBC/MFC determination (Example 32); assay type: cell-based; settings: C. jejuni CDC 0413; plated 48 hours after incubation; two values given
Experimental: as §6

[9] = test system: Candida albicans ATCC 90028; test: MBC/MFC determination (Example 32); assay type: cell-based; settings: C. albicans ATCC 90028; plated after 18 to 20 hours incubation or until growth in control wells; two values given
Experimental: as §6

Candida auris CDC 0385 [10] = test: MBC/MFC determination (Example 32); assay type: cell-based; settings: C. auris CDC 0385; plated after 18 to 20 hours incubation or until growth in control wells; two values given
Experimental: as §6

[11] = test system: Pseudomonas aeruginosa ATCC 27853; test: MBC/MFC determination (Example 32); assay type: cell-based; settings: P. aeruginosa ATCC 27853; plated after 18 to 20 hours incubation; two values given
Experimental: as §6

[12] = test system: Pseudomonas aeruginosa CDC 0248; test: MBC/MFC determination (Example 32); assay type: cell-based; settings: P. aeruginosa CDC 0248; plated after 18 to 20 hours incubation; two values given
Experimental: as §6

[13] = test system: Pseudomonas aeruginosa Eurofins 1674623; test: MBC/MFC determination (Example 32); assay type: cell-based; settings: P. aeruginosa Eurofins 1674623; plated after 18 to 20 hours incubation; two values given
Experimental: as §6

[14] = test system: Streptococcus pyogenes Eurofins 2065755; test: MBC/MFC determination (Example 32); assay type: cell-based; settings: S. pyogenes Eurofins 2065755; plated after 18 to 20 hours incubation; two values given
Experimental: as §6

Aspergillus niger = test: Disk diffusion susceptibility test; assay type: cell-based
Candida albicans = test: Disk diffusion susceptibility test; assay type: cell-based
Fusarium oxysporum = test: Disk diffusion susceptibility test; assay type: cell-based
Enterococcus faecalis = test: Disk diffusion susceptibility test; assay type: cell-based
Mycoplasma pneumoniae = test: Disk diffusion susceptibility test; assay type: cell-based; settings: repeated experiment, FIG. 2
Staphylococcus aureus = test: Disk diffusion susceptibility test; assay type: cell-based; settings: repeated experiment, FIG. 2
[15] = test system: Proteus mirabilis and Pseudomonas aeruginosa; test: Treatment of ocular infection in a dog; assay type: in vivo; settings: male bull dog, 2% aqueous solution 3 times per day; for examination of the eyes: infection in both eyes
Experimental: A male bull dog presented with an infection in both eyes which was cultured and tested positive for Proteus mirabilis and Pseudomonas aeruginosa. The dog was administered a 2% aqueous solution of Compound 1 at a rate of 3 times per day for 7 days. […] On day 6, the dog was reexamined. […] To verify, a swab of the eye was taken and cultured. The culture was negative for both Proteus mirabilis and Pseudomonas aeruginosa.

[16] = 10 mg/mL, repeated experiment, FIG. 2
[17] = 100 mg/mL, repeated experiment, FIG. 2

## CCCCCCCCCCCCCCCCCC[N+](C)(C)CCC[Si](OCC(CO)(CO)NCCS(=O)(=O)[O-])(OCC(CO)(CO)NCCS(=O)(=O)[O-])OCC(CO)(CO)NCCS(=O)(=O)O.[Cl-].[Na+].[Na+] [Compound 1]
[1]
  MIC: 1 µg/mL
Candida auris CDC 0385 [2]
  MIC: 1 µg/mL
[3]
  MIC: >64 µg/mL
[4]
  MIC: >64 µg/mL
[5]
  MIC: >64 µg/mL
[6]
  MIC: 8 µg/mL
[7]
  MBC: 64 µg/mL
[8]
  MBC: 32 µg/mL
[9]
  MBC: 1 µg/mL
Candida auris CDC 0385 [10]
  MBC: 2 µg/mL
[11]
  MBC: >64 µg/mL
[12]
  MBC: >64 µg/mL
[13]
  MBC: >64 µg/mL
[14]
  MBC: 8 µg/mL
Aspergillus niger; [16]
  inhibition (zone of inhibition), disk diffusion: complete inhibition
Aspergillus niger; [17]
  inhibition (zone of inhibition), disk diffusion: complete inhibition
Aspergillus niger; 1% aqueous solution, FIG. 1
  inhibition (zone of inhibition), disk diffusion: complete inhibition
Aspergillus niger; 2% aqueous solution, FIG. 1
  inhibition (zone of inhibition), disk diffusion: complete inhibition
Candida albicans; [16]
  inhibition (zone of inhibition), disk diffusion: complete inhibition
Candida albicans; [17]
  inhibition (zone of inhibition), disk diffusion: complete inhibition
Candida albicans; 1% aqueous solution, FIG. 1
  inhibition (zone of inhibition), disk diffusion: complete inhibition
Candida albicans; 2% aqueous solution, FIG. 1
  inhibition (zone of inhibition), disk diffusion: complete inhibition
Fusarium oxysporum; [16]
  inhibition (zone of inhibition), disk diffusion: complete inhibition
Fusarium oxysporum; [17]
  inhibition (zone of inhibition), disk diffusion: complete inhibition
Fusarium oxysporum; 1% aqueous solution, FIG. 1
  inhibition (zone of inhibition), disk diffusion: complete inhibition
Fusarium oxysporum; 2% aqueous solution, FIG. 1
  inhibition (zone of inhibition), disk diffusion: complete inhibition
Enterococcus faecalis; 1 mg/mL, repeated experiment, FIG. 2
  inhibition (zone of inhibition), disk diffusion: complete inhibition
Enterococcus faecalis; [16]
  inhibition (zone of inhibition), disk diffusion: complete inhibition
Enterococcus faecalis; [17]
  inhibition (zone of inhibition), disk diffusion: complete inhibition
Enterococcus faecalis; 1% aqueous solution, FIG. 1
  inhibition (zone of inhibition), disk diffusion: complete inhibition
Enterococcus faecalis; 2% aqueous solution, FIG. 1
  inhibition (zone of inhibition), disk diffusion: complete inhibition
Mycoplasma pneumoniae; 1 mg/mL
  inhibition (zone of inhibition), disk diffusion: complete inhibition
Mycoplasma pneumoniae; 10 mg/mL
  inhibition (zone of inhibition), disk diffusion: complete inhibition
Mycoplasma pneumoniae; 100 mg/mL
  inhibition (zone of inhibition), disk diffusion: complete inhibition
Staphylococcus aureus; 1 mg/mL
  inhibition (zone of inhibition), disk diffusion: complete inhibition
Staphylococcus aureus; 10 mg/mL
  inhibition (zone of inhibition), disk diffusion: complete inhibition
Staphylococcus aureus; 100 mg/mL
  inhibition (zone of inhibition), disk diffusion: complete inhibition
[15]; day 2
  examination of the eyes: signs of reduced infection
[15]; day 6
  examination of the eyes: no sign of infection
[15]; swab at day 6
  culture of eye swab for Proteus mirabilis and Pseudomonas aeruginosa: negative
